Measured values from ChEMBL document CHEMBL1127798, “Structure-activity relationships and pH dependence of binding of 8-alkyl-N5-deazapterins to dihydrofolate reductase” (J Med Chem, 1994).
pKd: −log10 of the molar value.

Assays:
Dihydrofolate reductase [1] = target: T1, Dihydrofolate reductase (Homo sapiens, UniProt P00374); assay: Apparent dissociation constant at pH 6.6 for human dihydrofolate reductase in the presence of cofactor NADPH
T1 sequence (P00374 whole entry): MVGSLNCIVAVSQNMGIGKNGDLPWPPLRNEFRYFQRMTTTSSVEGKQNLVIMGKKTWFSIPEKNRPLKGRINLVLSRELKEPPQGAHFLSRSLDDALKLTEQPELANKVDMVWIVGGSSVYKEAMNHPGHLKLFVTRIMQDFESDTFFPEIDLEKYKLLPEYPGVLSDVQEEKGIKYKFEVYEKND

Dihydrofolate reductase [2] = target: T1, Dihydrofolate reductase; assay: Apparent dissociation constant at pH 6.6 for human dihydrofolate reductase in the absence of cofactor NADPH
Dihydrofolate reductase [3] = target: T1, Dihydrofolate reductase; assay: Tested for the apparent dissociation constant for binding of compound to ternary NADPH complex with human dihydrofolate reductase using equations 15 and 16
Dihydrofolate reductase [4] = target: T1, Dihydrofolate reductase; assay: Tested for the apparent dissociation constant for binding of compound to binary NADPH complex with human dihydrofolate reductase using equation 4
Dihydrofolate reductase [5] = target: T1, Dihydrofolate reductase; assay: Tested for the apparent dissociation constant for binding of compound to binary NADPH complex with human dihydrofolate reductase using equation 11
Dihydrofolate reductase [6] = target: T1, Dihydrofolate reductase; assay: Tested for the apparent dissociation constant for binding of compound to ternary NADPH complex with human dihydrofolate reductase using equation 11
Dihydrofolate reductase [7] = target: T1, Dihydrofolate reductase; assay: Tested for the apparent dissociation constant for binding of compound to binary NADPH complex with human dihydrofolate reductase using equation 16
Dihydrofolate reductase [8] = target: T1, Dihydrofolate reductase; assay: Tested for the apparent dissociation constant for binding of compound to binary NADPH complex with human dihydrofolate reductase using equations 11 and 12
Dihydrofolate reductase [9] = target: T1, Dihydrofolate reductase; assay: Tested for the apparent dissociation constant for binding of compound to ternary NADPH complex with human dihydrofolate reductase using equation 4

SMILES	pKd (Dihydrofolate reductase [1])	pKd (Dihydrofolate reductase [2])	pKd (Dihydrofolate reductase [3])	pKd (Dihydrofolate reductase [4])	pKd (Dihydrofolate reductase [5])	pKd (Dihydrofolate reductase [6])	pKd (Dihydrofolate reductase [7])	pKd (Dihydrofolate reductase [8])	pKd (Dihydrofolate reductase [9])
CC1=C2C(=O)NC(N)N=C2N(C)C=C1 (stereo unspecified)	5.29	4.68	–	–	–	–	–	–	–
CC1=CN(C)C2=NC(N)NC(=O)C2=C1 (stereo unspecified)	6.30	4.51	–	–	–	–	–	–	–
CN1C=CC=C2C(=O)NC(N)N=C21 (stereo unspecified)	4.68	3.93	–	–	–	–	–	–	–
CCCN1C=CC=C2C(=O)NC(N)N=C21 (stereo unspecified)	5.40	4.92	5.77	7.68	5.19	6.08	5.68	5.24	8.59
CC1=CC=C2C(=O)NC(N)N=C2N1C (stereo unspecified)	5.54	4.68	–	–	–	–	–	–	–
CC1=C2C(=O)NC(N)N=C2N(CC(C)C)C=C1 (stereo unspecified)	7.10	5.62	7.24	9.70	5.52	7.52	5.66	5.59	10.00
CCN1C=C(C)C=C2C(=O)NC(N)N=C21 (stereo unspecified)	4.80	3.89	–	–	–	–	–	–	–
CC1=C2C(=O)NC(N)N=C2N(CCC(C)C)C=C1 (stereo unspecified)	6.15	5.74	–	–	–	–	–	–	–
CC(C)CN1C=CC=C2C(=O)NC(N)N=C21 (stereo unspecified)	6.22	5.66	–	–	–	–	–	–	–
CC(C)N1C=CC=C2C(=O)NC(N)N=C21 (stereo unspecified)	5.72	4.47	–	–	–	–	–	–	–
CCN1C=CC=C2C(=O)NC(N)N=C21 (stereo unspecified)	4.89	4.22	–	–	–	–	–	–	–
CC1=CN(C(C)C)C2=NC(N)NC(=O)C2=C1 (stereo unspecified)	4.74	4.22	–	–	–	–	–	–	–
CCCN1C=C(C)C=C2C(=O)NC(N)N=C21 (stereo unspecified)	5.34	3.97	–	–	–	–	–	–	–
NC1N=C2C(=CC=CN2Cc2ccccc2)C(=O)N1 (stereo unspecified)	6.15	5.77	–	–	–	–	–	–	–
CCCN1C(C)=CC=C2C(=O)NC(N)N=C21 (stereo unspecified)	5.70	5.47	6.00	9.30	5.57	6.35	5.55	5.92	9.22
